This passage reports Ki results from paper PMC6010138, “Synthesis and carbonic anhydrase I, II, VII, and IX inhibition studies with a series of benzo[d]thiazole-5- and 6-sulfonamides” (Journal of Enzyme Inhibition and Medicinal Chemistry, 2017).

A word on the Ki: it is a measure of affinity in units of concentration, obtained from inhibition or displacement. Low values mean higher affinity, high ones lower affinity.

Common to all, as to experiment: stopped-flow CO2 hydrase assay
What all share (assay type): biochemical

Assay [1] has as its target T1, hCA I (Homo sapiens, UniProt P00915).
T1 construct: gene CA1; recombinant, obtained in-house; cytosolic isoform

Assay [2] deals with T2, hCA IX (Homo sapiens, UniProt Q16790).
T2 construct: gene CA9; recombinant, obtained in-house; transmembrane isoform

Assay [3] addresses T3, hCA VII (Homo sapiens, UniProt P43166).
T3 construct: gene CA7; recombinant, obtained in-house; cytosolic isoform
An excerpt: stopped-flow CO2 hydrase assay on hCA VII

Assay [4] deals with T4, hCA II (Homo sapiens, UniProt P00918).
T4 construct: gene CA2; recombinant, obtained in-house; cytosolic isoform
The text has this: stopped-flow CO2 hydrase assay on hCA II

Structures are written as SMILES.

T1 sequence (P00915 2-261): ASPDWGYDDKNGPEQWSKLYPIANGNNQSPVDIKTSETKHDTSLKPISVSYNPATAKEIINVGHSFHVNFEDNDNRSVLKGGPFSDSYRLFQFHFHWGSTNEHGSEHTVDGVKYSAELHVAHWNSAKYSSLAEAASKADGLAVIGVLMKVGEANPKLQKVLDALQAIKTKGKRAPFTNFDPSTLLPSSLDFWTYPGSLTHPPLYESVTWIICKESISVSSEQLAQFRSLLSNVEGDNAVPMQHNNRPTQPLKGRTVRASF
T3 sequence (P43166 whole entry, canonical isoform): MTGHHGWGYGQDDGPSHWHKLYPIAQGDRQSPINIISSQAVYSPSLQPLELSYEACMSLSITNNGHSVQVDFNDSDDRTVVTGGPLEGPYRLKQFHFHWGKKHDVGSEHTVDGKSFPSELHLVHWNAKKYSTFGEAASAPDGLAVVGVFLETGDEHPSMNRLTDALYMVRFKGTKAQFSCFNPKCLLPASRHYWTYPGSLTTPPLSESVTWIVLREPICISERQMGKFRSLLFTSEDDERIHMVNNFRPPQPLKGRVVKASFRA

In the case of `Nc1nc2cc(S(N)(=O)=O)ccc2s1` [compound 4, 2-Aminobenzo[d]thiazole-5-sulfonamide], the Ki turned out to be 795 nM in assay [1], 38.2 nM in assay [2], 56.5 nM in assay [3] and 369 nM in assay [4].

As to `CC(=O)Nc1nc2c(Br)cc(S(N)(=O)=O)cc2s1` [compound 10, N-(4-bromo-6-sulfamoylbenzo[d]thiazol-2-yl)acetamide], the inhibition constant (Ki) in assay [1] was 2330 nM; in assay [2], 34.4 nM; in assay [3], 80.6 nM; in assay [4] it was 211 nM.

Take `Nc1nc2c(Br)c(S(N)(=O)=O)ccc2s1` [compound 6, 2-Amino-4-bromobenzo[d]thiazole-5-sulfonamide]: the Ki in assay [1] was 705 nM; in assay [2] it was 29.6 nM; in assay [3], 0.8 nM; in assay [4], 7.8 nM.

`Nc1nc2c(I)c(S(N)(=O)=O)ccc2s1` [compound 8, 2-Amino-4-iodobenzo[d]thiazole-5-sulfonamide]: the Ki in assay [1] is 482 nM; in assay [2], 100 nM; in assay [3], 42.2 nM; in assay [4] it was 51.5 nM.

For the compound `NS(=O)(=O)c1ccc2nc(NC(=O)c3ccccc3C(=O)O)sc2c1` [compound 12, 2-((6-Sulfamoylbenzo[d]thiazol-2-yl)carbamoyl)benzoic acid], the inhibition constant (Ki) in assay [1] came to 97.1 nM; in assay [2], 10 nM; in assay [3], 46.5 nM; in assay [4], 13.5 nM.

For the compound `NC(=S)Nc1cccc(S(N)(=O)=O)c1` [compound 3, 3-Thioureidobenzenesulfonamide], the Ki in assay [1] was determined as 917 nM; in assay [2], 296 nM; in assay [3] it was 75 nM; in assay [4], 149 nM.

With `Nc1nc2c(Br)cc(S(N)(=O)=O)cc2s1` [compound 5, 2-Amino-4-bromobenzo[d]thiazole-6-sulfonamide], the Ki in assay [1] was found to be 306 nM; in assay [2], 16.2 nM; in assay [3] it was 31.1 nM; in assay [4], 8.7 nM.

Regarding `Nc1nc2ccc(S(N)(=O)=O)cc2s1` [compound 2, 2-Aminobenzo[d]thiazole-6-sulfonamide], the Ki in assay [1] came to 84.1 nM; in assay [2], 3.7 nM; in assay [3], 84.2 nM; in assay [4] it was 33.6 nM.

Turning to `Nc1nc2c(I)cc(S(N)(=O)=O)cc2s1` [compound 7, 2-Amino-4-iodobenzo[d]thiazole-6-sulfonamide], the Ki in assay [1] is 606 nM; in assay [2] it was 212 nM; in assay [3], 92.3 nM; in assay [4] it was 15.1 nM.

Turning to `CC(=O)Nc1nc2ccc(S(N)(=O)=O)cc2s1` [compound 9, N-(6-sulfamoylbenzo[d]thiazol-2-yl)acetamide], the Ki in assay [1] is 361 nM; in assay [2], 23.2 nM; in assay [3] it was 54.4 nM; in assay [4], 20.8 nM.

`CC(=O)Nc1nc2cc(S(N)(=O)=O)ccc2s1` [compound 11, N-(5-sulfamoylbenzo[d]thiazol-2-yl)acetamide]: the Ki in assay [1] was 341 nM; in assay [2] it was 32.6 nM; in assay [3] it was 81.5 nM; in assay [4], 42 nM.

On to `NC(=S)Nc1ccc(S(N)(=O)=O)cc1` [compound 1, 4-Thioureido-benzenesulfonamide], for which the Ki amounted to 471 nM in assay [1], 32.9 nM in assay [2], 75.4 nM in assay [3] and 70 nM in assay [4].
